Assay [1] has as its target T1, wild-type ALK2 (aa172-499) (Homo sapiens (Human), UniProt Q04771). In words: ADPGlo biochemical autophosphorylation assay, ALK2. Particulars: 15 uM ATP.
The target of assay [2] is T1, wild-type ALK2 (aa172-499). In words: Caliper biochemical peptide phosphorylation assay, ALK2.
Assay [3] addresses ALK5 (aa162-503) (Homo sapiens (Human), UniProt P36897). As to the kind of experiment: Caliper biochemical peptide phosphorylation assay, ALK5. Particulars: 15 uM ATP. The source says:
For all biochemical assays, human recombinant proteins were expressed in and purified from baculo virus transfected insect cells. The constructs comprised the GS-domain and kinase domain of wild-type ALK2 (aa172-499), ALK2 FOP mutant (aa172-499 R206H), ALK3 (aa198-525), ALK5 (aa162-503) and ALK6 (aa168-495).
A kinase selectivity panel which measures substrate peptide phosphorylation was set-up for wild-type ALK2 (aa172-499), ALK2 FOP mutant (aa172-499 R206H), ALK1 (aa166-493), ALK5 (aa162-503) and ALK6 (aa168-495). The technology used for the described assay is based on the separation and quantification of substrate and product in an electrical field. In the course of the kinase reaction the peptide substrate is phosphorylated by a kinase. […] Due to this difference in charge the phosphorylated und unphosphorylated peptides migrate with different velocities in an electrical field.
In the applied method, this separation takes place inside a chip that contains a complex capillary system for simultaneous analysis of 12 samples (“LabChip EZ Reader 12-sipper chip”, Caliper Technologies Corp., Mountain View, USA). In order to allow the detection and quantification of the peptides in the capillary system, the peptides carry a fluorescent label (fluorescein). With this label the peptides can be quantified by fluorescence intensity through the instruments laser and detection system (LC3000, Caliper Life Sciences).
The assays were performed in 384-well, low volume microtiter assay plates in a final reaction volume of 9 ul. Dose-response curves were generated by incubating 10 nM of each kinase together with 2 uM of the fluorescently labeled substrate peptide 5-Fluo-Ahx-[…]-T-[…]-amid (10 mM stock solution in DMSO) in 50 mM Hepes pH 7.5, 0.02% Tween 20, 0.02% BSA, 1 mM DTT, 10 uM Na3VO4, 10 mM ß-Glycerolphosphate, 1 mM MgCl2, 12 mM MnCl2 (ALK1 and ALK6 7 mM) and 15 uM ATP for 60 min at 30° C. in the presence or absence of compound diluted in DMSO.
Kinase reactions were terminated by adding 15 ul STOP buffer (100 mM HEPES pH 7.5, 5% DMSO, 0.1% Caliper coating reagent, 10 mM EDTA, and 0.015% Brij35.
Plates with terminated kinase reactions were transferred to the Caliper LC3000 workstation (Caliper Technologies Corp., Mountain View, USA) for reading. The relative amount of phosphorylated peptide r, was calculated using the heights of the substrate peak, s, and the product peak, p:r=p/(p+s).
IC50 values for a given antagonist correspond to the compound concentration needed to inhibit half of the maximum signal of the kinase reaction.

The target in assay [4] is ALK1 (aa166-493) (Homo sapiens (Human), UniProt P37023). In words: Caliper biochemical peptide phosphorylation assay, ALK1. Particulars: 15 uM ATP.
Sequence of ALK1 (aa166-493) (P37023 166-493): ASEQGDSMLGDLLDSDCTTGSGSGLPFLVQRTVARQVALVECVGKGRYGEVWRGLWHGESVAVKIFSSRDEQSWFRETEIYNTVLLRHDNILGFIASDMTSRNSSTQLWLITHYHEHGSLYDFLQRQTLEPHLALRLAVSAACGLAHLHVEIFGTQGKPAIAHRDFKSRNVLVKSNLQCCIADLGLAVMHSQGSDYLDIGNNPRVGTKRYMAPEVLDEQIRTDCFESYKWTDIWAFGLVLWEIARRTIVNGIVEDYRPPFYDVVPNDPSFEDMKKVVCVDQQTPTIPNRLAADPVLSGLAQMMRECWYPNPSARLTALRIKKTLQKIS
For assay [5], the target named is ALK2 FOP mutant (aa172-499 R206H) (Homo sapiens (Human), UniProt Q04771, R206H). As to the kind of experiment: Caliper biochemical peptide phosphorylation assay, ALK2 FOP.
Sequence of ALK2 FOP mutant (aa172-499 R206H) (Q04771 172-499 R206H): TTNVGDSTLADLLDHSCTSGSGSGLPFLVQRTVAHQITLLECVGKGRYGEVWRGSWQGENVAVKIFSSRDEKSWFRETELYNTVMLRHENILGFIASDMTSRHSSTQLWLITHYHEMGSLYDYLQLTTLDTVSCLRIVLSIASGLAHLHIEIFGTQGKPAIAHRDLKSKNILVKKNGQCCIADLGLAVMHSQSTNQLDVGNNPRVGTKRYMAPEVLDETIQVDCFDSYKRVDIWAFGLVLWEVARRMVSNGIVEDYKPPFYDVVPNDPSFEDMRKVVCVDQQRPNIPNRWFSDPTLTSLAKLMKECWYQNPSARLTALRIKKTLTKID
Assay [6] has as its system HuH7 cells, BMP response element (BRE) luciferase reporter, BMP6 stimulated. In words: BMP signaling reporter gene assay. Format: cell-based. Particulars: Homo sapiens, Huh-7; BMP6 100 ng/ml; read-out: MSD HuH7 cell BMP reporter IC50. For orientation: A reporter such as luciferase makes a cellular process visible.
The mark [7] stands for this setting: Caliper peptide phosphorylation, 15 uM ATP, read-out: ALK2 IC50.
Where [8] appears, read: Caliper peptide phosphorylation, R206H, 15 uM ATP, read-out: ALK2 FOP EPK IC50.

This note sets out measurements from patent publication US11160797B2, “Pyridinone derivatives and their use as selective ALK-2 inhibitors” (NOVARTIS AG, priority 2017, dated 2021).

Like-named read-outs stand apart in the source and are kept apart here. Bounds are passed on as bounds.

T1 sequence (Q04771 172-499): as the sequence (Q04771 172-499 R206H) above, with H35R counted along it
Sequence of ALK5 (aa162-503) (P36897 162-503): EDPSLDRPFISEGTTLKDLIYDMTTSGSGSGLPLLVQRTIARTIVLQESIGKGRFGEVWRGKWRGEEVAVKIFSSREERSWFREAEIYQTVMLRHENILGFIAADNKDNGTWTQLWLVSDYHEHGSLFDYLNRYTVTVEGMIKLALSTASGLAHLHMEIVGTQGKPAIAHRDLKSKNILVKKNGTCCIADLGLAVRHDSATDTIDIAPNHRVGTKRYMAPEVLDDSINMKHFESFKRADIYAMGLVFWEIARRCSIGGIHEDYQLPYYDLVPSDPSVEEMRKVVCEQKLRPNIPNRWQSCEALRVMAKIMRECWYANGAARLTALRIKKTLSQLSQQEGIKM

A word on the IC50: it is the concentration that gives 50% inhibition. As for `CCC(C)n1cc(-c2cncc(-c3ccc4c(c3)CC(=O)N4C)c2)ccc1=O` (centres unmarked) [Example 7, 5-(1′-(sec-butyl)-6′-oxo-1′,6′-dihydro-[3,3′-bipyridin]-5-yl)-1-methylindolin-2-one], the IC50 was 230 nM in assay [1]; 190 nM in assay [2] (setting [7]); 4400 nM in assay [3]; 1200 nM in assay [4]; 170 nM in assay [5] (setting [8]).
In the case of `CCC(CC)n1cc(-c2cncc(-c3ccc4c(c3)CC(=O)N4C)c2)ccc1=O` [Example 4, 1-methyl-5-(6′-oxo-1′-(pentan-3-yl)-1′,6′-dihydro-[3,3′-bipyridin]-5-yl)indolin-2-one], the IC50 in assay [1] is 1300 nM; in assay [2] (setting [7]) it was 600 nM; in assay [3], > 10000 nM; in assay [5] (setting [8]), 650 nM.
Regarding `CC(C)Cn1cc(-c2cncc(-c3ccc4c(c3)CC(=O)N4C)c2)ccc1=O` [Example 14, 5-(1′-isobutyl-6′-oxo-1′,6′-dihydro-[3,3′-bipyridin]-5-yl)-1-methylindolin-2-one], the IC50 in assay [1] came to 740 nM; in assay [2] (setting [7]), 480 nM; in assay [6] it was 680 nM; in assay [3] it was 9100 nM; in assay [4], 4600 nM; in assay [5] (setting [8]) it was 510 nM.
Take `CC(C)n1cc(-c2cncc(-c3ccc4c(c3)CCC(=O)N4C)c2)ccc1=O` [Example 28, 6-(1′-Isopropyl-6′-oxo-1′,6′-dihydro-[3,3′-bipyridin]-5-yl)-1-methyl-3,4-dihydroquinolin-2(1H)-one]: the IC50 in assay [1] stood at 31 nM; in assay [2] (setting [7]) it was 30 nM; in assay [3], 580 nM; in assay [5] (setting [8]), 20 nM.
Take `CC(C)n1cc(-c2cncc(-c3ccc4c(c3)N(C)C(=O)C4)c2)ccc1=O` [Example 26, 6-(1′-Isopropyl-6′-oxo-1′,6′-dihydro-[3,3′-bipyridin]-5-yl)-1-methylindolin-2-one]: the half-maximal inhibitory concentration (IC50) in assay [1] is 710 nM; in assay [2] (setting [7]), 470 nM; in assay [3], > 10000 nM; in assay [5] (setting [8]), 590 nM.
Consider `CC(C)n1cc(-c2cncc(-c3ccc4c(c3)NC(=O)C4(C)C)c2)ccc1=O` [Example 32, 6-(1′-isopropyl-6′-oxo-1′,6′-dihydro-[3,3′-bipyridin]-5-yl)-3,3-dimethylindolin-2-one], for which the IC50 in assay [3] was determined as 690 nM; in assay [4], 280 nM.
As for `COCCN1C(=O)Cc2cc(-c3cncc(-c4ccc(=O)n(C(C)C)c4)c3)cnc21` [Example 27, 5-(1′-Isopropyl-6′-oxo-1′,6′-dihydro-[3,3′-bipyridin]-5-yl)-1-(2-methoxyethyl)-1H-pyrrolo[2,3-b]pyridin-2(3H)-one], the half-inhibitory concentration (IC50) in assay [1] was 1700 nM; in assay [2] (setting [7]), 880 nM; in assay [3], > 10000 nM; in assay [4], > 10000 nM; in assay [5] (setting [8]) it was 1200 nM.
Take `CN1C(=O)Cc2cc(-c3cncc(-c4ccc(=O)n(C5CC5)c4)c3)ccc21` [Example 10, 5-(1′-cyclopropyl-6′-oxo-1′,6′-dihydro-[3,3′-bipyridin]-5-yl)-1-methylindolin-2-one]: the half-inhibitory concentration (IC50) in assay [1] was 710 nM; in assay [2] (setting [7]), 410 nM; in assay [6], 730 nM; in assay [3], > 10000 nM; in assay [4], 2900 nM; in assay [5] (setting [8]), 390 nM.
Take `Cc1cc(-c2cncc(-c3ccc4c(c3)CC(=O)N4C)c2)cn(C(C)C)c1=O` [Example 3, 5-(5-(1-Isopropyl-5-methyl-6-oxo-1,6-dihydropyridin-3-yl)pyridin-3-yl)-1-methylindolin-2-one]: the half-inhibitory concentration (IC50) in assay [1] turned out to be 97 nM; in assay [2] (setting [7]) it was 90 nM; in assay [6], 50 nM; in assay [3] it was 660 nM; in assay [5] (setting [8]), 70 nM.
For `CC(C)n1cc(-c2cncc(-c3cnc4c(c3)C(C)(C)C(=O)N4C)c2)ccc1=O` [5-(1′-isopropyl-6′-oxo-1′,6′-dihydro-[3,3′-bipyridin]-5-yl)-1,3,3-trimethyl-1H-pyrrolo[2,3-b]pyridin-2(3H)-one], the IC50 in assay [2] (read-out: IC50 in the ALK2 assay) and in assay [5] (read-out: IC50 in the ALK2-FOP assay) was > 1000 nM in each case.
As to `CC(C)n1cc(-c2cncc(-c3cc4c(cc3F)N(C)C(=O)C4)c2)ccc1=O` [Example 31], the half-inhibitory concentration (IC50) in assay [1] was 120 nM; in assay [2] (setting [7]) it was 100 nM; in assay [6], 130 nM; in assay [3] it was 5300 nM; in assay [4], 770 nM; in assay [5] (setting [8]), 90 nM.
As to `CC(C)n1cc(-c2cncc(-c3ccc4c(c3)CCCC(=O)N4C)c2)ccc1=O` [Example 39, 7-(1′-isopropyl-6′-oxo-1′,6′-dihydro-[3,3′-bipyridin]-5-yl)-1-methyl-4,5-dihydro-1H-benzo[b]azepin-2(3H)-one], the IC50 in assay [1] came out at 89 nM; in assay [2] (setting [7]), 70 nM; in assay [6], 110 nM; in assay [3] it was 1400 nM; in assay [4] it was 350 nM; in assay [5] (setting [8]) it was 60 nM.
Regarding `CCn1cc(-c2cncc(-c3ccc4c(c3)CC(=O)N4C)c2)ccc1=O` [Example 9, 5-(1′-ethyl-6′-oxo-1′,6′-dihydro-[3,3′-bipyridin]-5-yl)-1-methylindolin-2-one], the 50% inhibitory concentration (IC50) was 490 nM in assay [1]; 460 nM in assay [2] (setting [7]); 540 nM in assay [6]; > 10000 nM in assay [3]; 400 nM in assay [5] (setting [8]).
Consider `CC(C)n1cc(-c2cncc(-c3ccc4c(c3)CC(=O)N4C)c2F)ccc1=O` [Example 52, 5-(4-fluoro-1′-isopropyl-6′-oxo-1′,6′-dihydro-[3,3′-bipyridin]-5-yl)-1-methylindolin-2-one], for which the IC50 in assay [1] is 690 nM; in assay [2] (setting [7]) it was 380 nM; in assay [3] it was > 10000 nM; in assay [4], 3600 nM; in assay [5] (setting [8]), 380 nM.
For the molecule `Cc1cc(-c2cncc(-c3ccc(=O)n(C(C)C)c3)c2)cc2c1N(C)C(=O)C2` [Example 35, 5-(1′-isopropyl-6′-oxo-1′,6′-dihydro-[3,3′-bipyridin]-5-yl)-1,7-dimethylindolin-2-one], the concentration for half-maximal inhibition (IC50) is 110 nM in assay [1]; 100 nM in assay [2] (setting [7]); 140 nM in assay [6]; 5700 nM in assay [3]; 630 nM in assay [4]; 91 nM in assay [5] (setting [8]).
On to `COCCN1C(=O)Cc2cc(-c3cncc(-c4ccc(=O)n(C(C)C)c4)c3)ccc21` [Example 29, 5-(1′-Isopropyl-6′-oxo-1′,6′-dihydro-[3,3′-bipyridin]-5-yl)-1-(2-methoxyethyl)indolin-2-one], for which the IC50 in assay [1] was determined as 140 nM; in assay [2] (setting [7]), 130 nM; in assay [3] it was 6800 nM; in assay [4] it was 1600 nM; in assay [5] (setting [8]), 150 nM.
Consider `CCN1C(=O)Cc2cc(-c3cncc(-c4ccc(=O)n(C(C)C)c4)c3)ccc21` [Example 20, 1-Ethyl-5-(1′-isopropyl-6′-oxo-1′,6′-dihydro-[3,3′-bipyridin]-5-yl)indolin-2-one], for which the concentration for half-maximal inhibition (IC50) in assay [1] was 110 nM; in assay [2] (setting [7]), 90 nM; in assay [6], 140 nM; in assay [3], 2500 nM; in assay [5] (setting [8]), 90 nM.
For the molecule `COCCCN1C(=O)Cc2cc(-c3cncc(-c4ccc(=O)n(C(C)C)c4)c3)ccc21` [Example 30, 5-(1′-isopropyl-6′-oxo-1′,6′-dihydro-[3,3′-bipyridin]-5-yl)-1-(3-methoxypropyl)indolin-2-one], the IC50 in assay [3] was found to be 6000 nM; in assay [4], 1500 nM.
